Data taken from patent publication US5972680A, “Glucose transporter vesicle aminopeptidase” (Bayer Corporation, priority 1995, dated 1999).
Read-outs that look alike come from different tables or passages of the source. One block for each molecule: values may come before it. Where a SMILES comes first, the peptide text is derived from it. The star is where a group is joined. CH2Cl = ClC*

Key:
GTVap [1] = target: T1, GTVap (Rattus norvegicus, UniProt P97629); assay: GTVap inhibition by protease and aminopeptidase inhibitors, leu-p-nitroanilide substrate, HDM extract; format: biochemical; conditions: for IC50: HDM enzyme extract, inhibitor added 15 minutes prior to leu-p-nitroanilide substrate
T1 construct: the GTVaps were solubilized from GLUT4 vesicles, LDM, HDM, and PM using 0.1% Triton X-100; from tissue; host or cells: adipocytes of epididymal fat pads of Sprague-Dawley rats, HDM fraction (Triton X-100 extract)
T1 sequence (P97629 1-1025): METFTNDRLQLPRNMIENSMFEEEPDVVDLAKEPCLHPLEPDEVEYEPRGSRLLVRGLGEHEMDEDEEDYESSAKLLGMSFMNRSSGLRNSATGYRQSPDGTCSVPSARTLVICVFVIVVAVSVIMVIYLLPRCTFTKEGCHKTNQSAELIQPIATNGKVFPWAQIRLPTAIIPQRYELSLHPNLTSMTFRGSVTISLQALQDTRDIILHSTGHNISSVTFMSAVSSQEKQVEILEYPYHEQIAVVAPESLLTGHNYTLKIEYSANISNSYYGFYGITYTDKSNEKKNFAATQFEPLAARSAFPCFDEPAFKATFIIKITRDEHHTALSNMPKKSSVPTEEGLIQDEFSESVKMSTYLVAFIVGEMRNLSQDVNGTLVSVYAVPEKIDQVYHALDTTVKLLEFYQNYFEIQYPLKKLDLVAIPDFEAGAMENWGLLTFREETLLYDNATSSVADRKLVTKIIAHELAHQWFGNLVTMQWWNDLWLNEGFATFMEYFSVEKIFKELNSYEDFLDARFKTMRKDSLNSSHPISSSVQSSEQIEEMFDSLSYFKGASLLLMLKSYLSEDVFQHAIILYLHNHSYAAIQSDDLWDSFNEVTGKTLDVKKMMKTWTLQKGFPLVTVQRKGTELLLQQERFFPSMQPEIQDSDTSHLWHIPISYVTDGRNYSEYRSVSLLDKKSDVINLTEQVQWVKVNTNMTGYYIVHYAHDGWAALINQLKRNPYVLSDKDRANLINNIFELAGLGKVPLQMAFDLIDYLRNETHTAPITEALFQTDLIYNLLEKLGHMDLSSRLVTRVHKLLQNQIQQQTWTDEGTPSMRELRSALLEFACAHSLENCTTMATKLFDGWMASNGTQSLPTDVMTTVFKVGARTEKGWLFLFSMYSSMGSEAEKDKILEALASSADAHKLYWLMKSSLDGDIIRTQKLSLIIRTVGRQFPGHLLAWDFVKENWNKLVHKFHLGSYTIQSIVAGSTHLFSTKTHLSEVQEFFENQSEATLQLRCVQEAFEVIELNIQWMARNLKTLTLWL

GTVap [2] = target: T1, GTVap; assay: Ion stabilization of GTVap activity over time at 4° C.; format: biochemical; conditions: HDM extract in 20 mM Tris-HCl pH 7.5 at 4° C.
GTVap [3] = target: T1, GTVap; assay: Effect of ions on GTVap activity, Triton X-100 extracts of HDM; format: biochemical
[4] = target: GTVap (Glucose Transporter Vesicle aminopeptidase) as present in rat adipocyte HDM and HDM extracts (rat); assay: batch adsorption of solubilised HDM extract on wheat germ lectin-Sepharose
GTVap [5] = target: T1, GTVap; assay: Relative activity of GTVap with amino acid p-nitroanilide substrates, HDM extract; format: biochemical; conditions: substrate 1.6 mM, 37° C.
Experimental: The […] can be maximally extracted (>95%) from the LDM, HDM, and PM membranous compartments using low concentrations of detergents. Unless otherwise indicated, the […] were solubilized from GLUT4 vesicles, LDM, HDM, and PM using 0.1% Triton X-100 in 20 mM Tris, pH 7.5 at 4° C. for 15 minutes. The insoluble material was pelleted at 20,000×g for 20 minutes and discarded. […] The UV absorbance of the p-nitroanilide product was measured at 405 nm and quantified by comparison to p-nitroanilide standards. The results are reported as pmoles p-nitroanilide produced per μg protein/hour at 37° C. unless otherwise noted. Alternatively, the results are presented as change in OD at 405 nm if the protein was too low to determine (eg column fractions) or a relative comparison was being made. […] To characterize the relative reactivities of GTVap to different amino acid p-nitroanilide substrates, an HDM extract was prepared as described above and incubated with each substrate at a concentration of 1.6 mM as described above.

GLUT4 vesicle GTVap = target: T2, GLUT4 vesicle GTVap (Rattus norvegicus, UniProt P97629); assay: Relative activity of GLUT4 vesicle GTVap with amino acid β-napthylamide substrates; format: biochemical; conditions: GLUT4 vesicle extract; substrate 200 uM
T2 construct: a GLUT4 vesicle extract was prepared as described above and incubated with each substrate; from tissue; host or cells: GLUT4 vesicles immunopurified from the LDM fraction of rat epididymal adipocytes
T2 sequence (P97629 1-1025): T1 sequence (P97629 1-1025)
Experimental: Unless otherwise indicated, the GTVaps were solubilized from GLUT4 vesicles, LDM, HDM, and PM using 0.1% Triton X-100 in 20 mM Tris, pH 7.5 at 4° C. for 15 minutes. The insoluble material was pelleted at 20,000×g for 20 minutes and discarded. […] The results are reported as pmoles p-nitroanilide produced per μg protein/hour at 37° C. unless otherwise noted.
To characterize the relative reactivities of GTVap to different amino acid β-napthylamide substrates, a GLUT4 vesicle extract was prepared as described above and incubated with each substrate at a concentration of 200 uM as described above.

GTVap [6] = target: T1, GTVap; assay: GTVap cleavage of insulin by HDM, mass spectrometry; format: biochemical; conditions: HDM 1.8 mg/ml, 120 μg/ml porcine insulin, 37° C., pH 7.5
Experimental: HDM (1.8 mg/ml) was incubated at 37° C. with 120 μg/ml porcine insulin in 50 mM sodium borate, pH 7.5, containing the following protease inhibitors that were previously shown to have no inhibitory effect on GTVap: 2 mM benzamidine, 2 μM leupeptin, 1 μM pepstatin, 1 mM DFP, and 150 μM PMSF. The reaction was terminated after various incubation times by centrifugation of aliquots at 200,000×g to remove the HDM. The insulin products were detected by mass spectrometry or were first chromatographed on a 2.1×15 cm Beckman Spherisorb C18 column at 0.25 ml/min. in a 4 hour linear gradient of 27% to 31% acetonitrile in 1% TFA adjusted to pH 3.0 with TEA, prior to mass spectroscopic analysis.

GTVap [7] = assay: Insulin-stimulated translocation of GTVap to the plasma membrane in rat adipocytes; format: cell-based; conditions: insulin 10 nM, 20 minutes at 37° C.
Experimental: Epididymal fat pads from 125 g Sprague-Dawley rats were removed and immediately placed in KRBH buffer containing 1% BSA, 2.5 mM glucose and 200 nM adenosine. The fat was minced, collagenase was added to 3 mg/ml, and the mixture was incubated at 37° C. for 45 minutes with shaking. The dissociated adipocytes were filtered through a 250 micron nylon screen and washed 3 times (using mild centrifugation) with KRBH containing 1% BSA and 200 nM adenosine. The cells were resuspended in the wash buffer containing 3% BSA.
The membrane fractions PM, HDM and LDM were prepared generally according to Simpson et. al., Biochimica et Biophysica Acta, 763, 393-407 (1983). Isolated adipocytes were homogenized in a chilled Wheaton 55 ml teflon pestle homogenizer for ten strokes. The fat layer was removed following a 10,000×g centrifugation and the remaining material was rehomogenized. The PM fraction was pelleted at 16,000×g and the supernatant was recentrifuged to remove any additional PM. […]
GLUT4 is known to translocate from an intracellular vesicular compartment to the plasma membrane upon insulin stimulation. […] The insulin stimulated and control adipocytes were fractionated into the subcellular compartments and analyzed for GTVap enzyme and protein (Western blot) as previously described.

[8] = incubated 15 minutes at 37° C. before leu-p-nitroanilide

Molecule: CC(C)C[C@H](NC(=O)[C@@H](N)CC(C)C)C(=O)N[C@@H](Cc1ccccc1)C(=O)CCl [Leu-Leu-Phe-chloromethyl ketone] (H-Leu-Leu-Phe-CH2Cl)
IC50 (GTVap [1]): 1 mM

Molecule: [Zn+2] [Zinc]
stabilization of GTVap activity against time dependent inactivation (GTVap [2]): do not stabilize the enzyme
effect of ion on GTVap enzyme activity (GTVap [3]; [8]): optimally activate at μmolar concentrations and inhibit at mmolar concentrations

Molecule: O[C@H](CS)[C@H](O)CS (racemic) [Dithiothreitol]
activation at 200 µM (GTVap [1]; at 0.2 mM, read-out: increase of enzyme activity): 20%
inhibition at 5000 µM (GTVap [1]; at 5 mM): 30%

Molecule: N=C(N)c1ccccc1 [benzamidine, Benzamidine]
effect on GTVap activity (GTVap [1]): no effect

Molecule: lithium
effect of ion on GTVap enzyme activity (GTVap [3]; between 1 μM and 10 mM): no effect

Molecule: [Ca] [Calcium]
stabilization of GTVap activity against time dependent inactivation (GTVap [2]): stabilizes the enzyme activity
effect of ion on GTVap enzyme activity (GTVap [3]; [8]): partially activate, but at high μmolar to mmolar ion concentrations

Molecule: insulin: Insulin (porcine) obtained from Eli Lilly
cleavage of insulin by GTVap (mass spectroscopic analysis) (GTVap [6]): N-terminal residues phenylalanine and valine of the B-subunit of insulin were removed sequentially
GTVap translocation (Western blot reactivity) (GTVap [7]): translocates to the plasma membrane
increase of GTVap enzyme activity in the plasma membrane (GTVap [7]): 29%

Molecule: N=C(N)NCCCC(N)C(=O)Nc1ccc2ccccc2c1 (stereo not drawn) [arginine β-napthylamide]
activity of GLUT4 vesicle GTVap with amino acid-β-napthylamide substrate (GLUT4 vesicle GTVap): 6.5 nmoles/25 uL extract/hr

Molecule: c1ccc(-c2ccccn2)nc1 [dipyridyl]
inhibition of GTVap activity (GTVap [1]): > 98%

Molecule: CC(=O)N[C@@H](CC(C)C)C(=O)N[C@@H](CC(C)C)C(=O)N[C@H](C=O)CCCNC(=N)N [leupeptin, Leupeptin]
effect on GTVap activity (GTVap [1]): no effect

Molecule: [Mg] [magnesium]
effect of ion on GTVap enzyme activity (GTVap [3]; [8]): partially activate, but at high μmolar to mmolar ion concentrations

Molecule: O=S(=O)(F)Cc1ccccc1 [PMSF, phenylmethylsulfonyl fluoride]
effect on GTVap activity (GTVap [1]): no effect

Now from value to molecule, other results behind:

percent of total aminopeptidase activity bound [4]: 93%
Molecule: wheat germ lectin-Sepharose 6 MB (tool reagent)

activity of GTVap with amino acid-p-nitroanilide substrate (GTVap [5]): 0.09 nmoles/μg protein/hr
Molecule: CC(C)[C@H](N)C(=O)Nc1ccc([N+](=O)[O-])cc1 [valine p-nitroanilide]

stabilization of GTVap activity against time dependent inactivation (GTVap [2]): do not stabilize the enzyme
Molecule: [Mn+2] [manganese]
effect of ion on GTVap enzyme activity (GTVap [3]; [8]): optimally activate at μmolar concentrations and inhibit at mmolar concentrations

IC50 (GTVap [1]): > 1 mM
Molecule: CCCCC[C@H](CC(=O)NO)C(=O)N[C@H](C(=O)N1CCC[C@H]1CO)C(C)C [actinonin, Actinonin]

effect of ion on GTVap enzyme activity (GTVap [3]; between 1 μM and 10 mM): no effect
Molecule: [K+] [potassium]

activity of GTVap with amino acid-p-nitroanilide substrate (GTVap [5]): 0.08 nmoles/μg protein/hr
Molecule: NCC(=O)Nc1ccc([N+](=O)[O-])cc1 [glycine p-nitroanilide]

inhibition of GTVap activity (GTVap [1]; at >0.2 mM, relative to inhibitor-free control): > 98%
Molecule: c1cnc2c(c1)ccc1cccnc12 [phenanthroline]

activity of GLUT4 vesicle GTVap with amino acid-β-napthylamide substrate (GLUT4 vesicle GTVap): 0.9 nmoles/25 uL extract/hr
Molecule: NC(Cc1ccccc1)C(=O)Nc1ccc2ccccc2c1 (stereo not drawn) [phenylalanine β-napthylamide]

activity of GLUT4 vesicle GTVap with amino acid-β-napthylamide substrate (GLUT4 vesicle GTVap): 2.9 nmoles/25 uL extract/hr
Molecule: CSCCC(N)C(=O)Nc1ccc2ccccc2c1 (stereo not drawn) [methionine β-napthylamide]

IC50 (GTVap [1]): 0.002 mM
Molecule: CC(C)C[C@H](N)CS [leuthiol, L-leucinethiol]

stabilization of GTVap activity against time dependent inactivation (GTVap [2]): do not stabilize the enzyme
Molecule: [Co+2] [cobalt]
effect of ion on GTVap enzyme activity (GTVap [3]; [8]): optimally activate at μmolar concentrations and inhibit at mmolar concentrations

activity of GTVap with amino acid-p-nitroanilide substrate (GTVap [5]): 0.35 nmoles/μg protein/hr
Molecule: O=C(Nc1ccc([N+](=O)[O-])cc1)[C@@H]1CCCN1 [proline p-nitroanilide]
